Experimental data taken from US11345659B2, “Pipecolic esters for inhibition of the proteasome” (THE BOARD OF REGENTS OF THE UNIVERSY OF TEXAS SYSTEM, priority 2018, dated 2022).
“Also recorded” adds a separate entry of the source.

Columns and labels:
[1] = molecular target: T1, 20 S human housekeeping proteasome (Homo sapiens, UniProt P25787+P25789); assay: ChT-L peptidase activity of 20 S proteasome activated with Rpt5 peptide; format: biochemical; conditions: ChT-L, Suc-LLVY-AMC substrate, 20 S activated with Rpt5 peptide; read-out: IC50
T1 construct: purified from erythrocytes; purchased Enzo Life Sciences, Inc. (Farmingdale, N.Y.); host or cells: human erythrocytes
Procedure: (§1) Human housekeeping 20 S and 26 S and complexes purified from erythrocytes were purchased from Enzo Life Sciences, Inc. (Farmingdale, N.Y.). The 1 mg/ml stock 20 S proteasome was diluted to 0.2 mg/ml working solution in 50 mM Tris/HCl, pH 8 containing 20% glycerol (dilution buffer). For the 26 S proteasome stock, the dilution buffer was supplemented with 2 mM ATP, 1 mM MgCl2, and 1 mM DTT (dithiothreitol). The ChT-L peptidase activity was measured as arbitrary intensity units of fluorescence emitted by 7-amino-4-methylcoumarin (AMC) released from the canonical model peptide substrate succinyl-LeuLeuValTyr-methylcoumarin (SucLLVY-MCA; Bachem Bioscience Inc., Philadelphia, Pa.), used at concentration of 100 μM. Free AMC (Sigma-Aldrich, St. Louis, Mo.) was used as the standard. The Rpt5 C-terminal peptide was synthesized (standard solid-phase peptide chemistry) and purified to at least 98% purity by GenScript (Piscataway, N.J.). The Rpt5 peptide and the peptide substrate were dissolved in dimethylsulfoxide (DMSO) and such stock solutions were stored at −20° C. The total concentration of DMSO in final reaction mixtures never exceeded 3% (vol/vol).
The reaction was carried out in 96-well plates, in 100 μL of reaction mixture, for 1 hour at 37° C. In the case of 20 S proteasome, the reaction mixture consisted of 45 mM Tris/HCl, pH 8, 100 mM KCl with premixed 10 μM Rpt5 peptide and 100 μM Suc-LLVY-MCA, to which 200 ng (nearly […]) of proteasome and desired concentration of tested compounds in 1 μL of DMSO were added. To test the activity of 26 S proteasome under conditions challenging coordination of the three pairs of peptidase active centers, a mixture of three canonical substrates specific for the ChT-L (SucLLVY-MCA), trypsin-like (T-L; BocLRR-MCA) and caspase-like (Casp-L; Z-LLE-MCA) was used with each of the substrates at 33.3 μM (100 μM of the total substrate concentration). The reaction mixture in this case consisted of 50 mM Tris/HCl, pH 8, 20 mM NaCl, premixed with the substrates and 2 mM ATP, to which 200 ng (nearly 0.1 nmol) of the 26 S working solution and desired concentration of tested compounds in 0.5 μL of DMSO were added. The reaction rates were calculated from a linear segment of kinetic curves constructed from measurements in 1-minutes intervals (Fluoroskan Ascent plate reader; Thermo Fisher Scientific Inc., Waltham, Mass.). Reaction rates were calculated using a linear fit executed by Slope Analyzer and Enzyme Kinetics applications launched within Origin Pro 2017 (OriginLab). Specific activity of the control 20 S proteasome activated with the Rpt5 peptide was in the range of 1.4 to 2.3 nanomoles of AMC product released by 1 mg of 20 S per second (1.95±0.24; n=18). Specific activity of the control 26 S proteasome challenged with three substrates reached on average 0.28±0.06 nanomoles of AMC product released by 1 mg of the enzyme per second (n=6). For comparison, degradation of the canonical Suc-LLVY-MCA substrate by the control 26 S proteasome preceded with a rate in the range of 0.6-0.8 nanomoles of AMC released per mg of the enzyme per second. The data are presented as mean±SD or as a representative set from at least 3 independent experiments.
The compounds were evaluated using the 20 S human housekeeping proteasome. It was activated with the Rpt5 derived 10-residue peptide that contains the C-terminal HbYX (hydrophobic-Tyr-any AA) motif activating the proteasome in trans and to some extend mimic the activation by the 19 S regulatory particle (Osmulski and Gaczynska (2013) Molecular pharmacology 84: 104-113; Smith et al. (2006) J. Struct. Biol. 156: 72-83; Smith et al. (2007) Mol. Cell 27: 731-744). Proteolytic activity was monitored over time using a fluorogenic peptide substrate specific for the chymotrypsin-like active center (ChT-L, Suc-LLVY-AMC) in the presence of a concentration range of the inhibitors. […]

26 S proteasome = molecular target: T2, 26 S proteasome (Homo sapiens, UniProt P25787+P25789); assay: 26 S proteasome challenged with mixture of three substrates (surrogate proteinase assay); format: biochemical; conditions: mixture of ChT-L, T-L and Casp-L substrates, 33.3 μM each; read-out: IC50, 26 S proteasome with substrates for all three peptidases
T2 construct: purified from erythrocytes; purchased Enzo Life Sciences, Inc. (Farmingdale, N.Y.); host or cells: human erythrocytes
Procedure: as §1
The reaction was carried out in 96-well plates, in 100 μL of reaction mixture, for 1 hour at 37° C. In the case of 20 S proteasome, the reaction mixture consisted of 45 mM Tris/HCl, pH 8, 100 mM KCl with premixed 10 μM Rpt5 peptide and 100 μM Suc-LLVY-MCA, to which 200 ng (nearly […]) of proteasome and desired concentration of tested compounds in 1 μL of DMSO were added. […] The reaction rates were calculated from a linear segment of kinetic curves constructed from measurements in 1-minutes intervals (Fluoroskan Ascent plate reader; Thermo Fisher Scientific Inc., Waltham, Mass.). Reaction rates were calculated using a linear fit executed by Slope Analyzer and Enzyme Kinetics applications launched within Origin Pro 2017 (OriginLab). […]

[2] = tested on: Human multiple myeloma RPMI 8226 cells; assay: Proliferation of RPMI 8226 cells, live cell count by Trypan Blue exclusion; format: cell-based; conditions: RPMI 8226, 0.2 μM, 24 hours, read-out: cell proliferation, % of control
Procedure: Human multiple myeloma RPMI 8226 cells were purchased from American Type Culture Collection (ATCC; Manassas, Va.) and cultured according to ATCC specifications. […] The content of live cells was determined by excluding the Trypan Blue-stained cells. The cells were counted with TC20 Automated Cell Counter (Bio-Rad Laboratories, Hercules, Calif.) and EC50 was calculated with Origin Pro 2017 (OriginLab Corporation, Northampton, Mass.). When indicated, the cells were harvested, washed twice in PBS, resuspended in dilution buffer and stored in −80° C. To prepare crude lysates the thawed preparations were vortexed with glass beads and centrifuged for 5 min 5,000×g (4° C.). The supernate was centrifuged for 20 min 14,000×g. The resulting supernate was used as “crude lysate.” SDS-PAGE was carried in 12% acrylamide, Tris-glycine gels from Invitrogen. Chameleon Duo (Li-Cor) and Rainbow RPN800E (GE Healthcare) molecular weight standards were separated on each gel alongside lysates. The proteins were transferred to nitrocellulose membrane in a semi-dry system. The membranes were probed with specific primary antibodies from Life Technologies (S6, PS6) and Li-Cor (COX IV), and then with secondary antibodies from Li-Cor. In each experiment visualization of S6, PS6 and COX IV was performed on the same membrane with Odyssey Infrared Imaging System (Li-Cor).
The effects of compound 3 observed in vitro prompted its influence on the proliferation of cultured cancer cells to be tested, namely the multiple myeloma RPMI 8226 line. […] Such relatively low EC50, as compared to in vitro determined IC50 values for peptidase activities (2-3 μM; FIG. 3A and FIG. 3B) should come to no surprise. […] The in vitro readout of single peptidase activities is a useful and convenient measure of the catalytic prowess of proteasome. However, especially in the case of allosteric regulators, it may not fully reflect the important structural and functional effects.
Referring to FIG. […] The data are averages (±SD) of three-to-five independent experiments. […]

mTOR = molecular target: T3, mTOR (Homo sapiens, UniProt P42345+P62942); assay: Western blot of S6 phosphorylation in RPMI 8226 cells; format: cell-based; conditions: RPMI 8226, 24 hours; rapamycin 2 nM, compound 3 and B1 0.2 μM
T3 construct: endogenous in cells; host or cells: RPMI 8226 (ATCC)
Procedure: (§2) Human multiple myeloma RPMI 8226 cells were purchased from American Type Culture Collection (ATCC; Manassas, Va.) and cultured according to ATCC specifications. […] The content of live cells was determined by excluding the Trypan Blue-stained cells. The cells were counted with TC20 Automated Cell Counter (Bio-Rad Laboratories, Hercules, Calif.) and EC50 was calculated with Origin Pro 2017 (OriginLab Corporation, Northampton, Mass.). When indicated, the cells were harvested, washed twice in PBS, resuspended in dilution buffer and stored in −80° C. To prepare crude lysates the thawed preparations were vortexed with glass beads and centrifuged for 5 min 5,000×g (4° C.). The supernate was centrifuged for 20 min 14,000×g. The resulting supernate was used as “crude lysate.” SDS-PAGE was carried in 12% acrylamide, Tris-glycine gels from Invitrogen. Chameleon Duo (Li-Cor) and Rainbow RPN800E (GE Healthcare) molecular weight standards were separated on each gel alongside lysates. The proteins were transferred to nitrocellulose membrane in a semi-dry system. The membranes were probed with specific primary antibodies from Life Technologies (S6, PS6) and Li-Cor (COX IV), and then with secondary antibodies from Li-Cor. In each experiment visualization of S6, PS6 and COX IV was performed on the same membrane with Odyssey Infrared Imaging System (Li-Cor). […]

FKBP12 = molecular target: T4, FKBP12 (Homo sapiens, UniProt P62942); assay: Suppression of rapamycin inhibition of S6 phosphorylation by competing for FKBP12; format: cell-based; conditions: RPMI 8226, 24 hours; FK506 10 μM, compound 3 and B1 0.2 μM, with rapamycin
T4 construct: endogenous in cells; host or cells: RPMI 8226 (ATCC)
Procedure: as §2

[3] = molecular target: T5, native human 20 S core proteasome (Homo sapiens, UniProt P25787+P25789); conditions: literature; cited from earlier work
T5 construct: purified from erythrocytes; purchased Enzo Life Sciences, Inc. (Farmingdale, N.Y.); host or cells: human erythrocytes

T4 sequence (P62942 whole entry): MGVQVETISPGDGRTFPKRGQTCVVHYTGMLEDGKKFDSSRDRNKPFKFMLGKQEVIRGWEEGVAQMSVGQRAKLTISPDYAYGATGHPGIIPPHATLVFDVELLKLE

Row | SMILES | IC50 [1] | IC50 (26 S proteasome) | activity at 0.2 µM [2] | activity of mTOR (phosphorylation of S6) (mTOR) | suppression of rapamycin inhibition of S6 phosphorylation (FKBP12 binding) (FKBP12) | contribution of closed forms in 20 S particles population [3]
1 | COc1cc(CCCOC(=O)[C@@H]2CCCCN2C(=O)C(=O)C2CCCCC2)cc(OC)c1OC (racemic) [Compound B1] | 5.8 µM | 4.6 µM | 60 to 65% | neither B1 nor compound 3 affected the activity of mTOR; also recorded: did not inhibit the S6 phosphorylation | did not mimic the actions of FK506 | –
2 | CCOC(=O)[C@]1(c2ccccc2)N=C(c2ccc(OC)cc2)N(Cc2ccccc2)[C@@H]1c1ccc(NCc2ccccc2)cc1 [TCH-165] | – | – | – | – | – | induced a strong decrease in contribution of the closed forms
